US20260000728A1, “PEPTIDE HAVING ACE INHIBITORY ACTIVITY AND COMPOSITION CONTAINING THE SAME” (Vedan International (Holdings) Limited, priority 2024, published 2026)

System: Spontaneously hypertensive rats (SHR)
Assay: Animal Test (2): 8-week feeding, weekly blood pressure in SHR
Format: in vivo, rat
Details: PC group, 1 mg/kg
Description: Six-week-old spontaneously hypertensive rats (SHR) were divided into 5 groups, each receiving the corresponding treatment stated below: • Negative control group (NC group): feeding with water • Positive control group (PC group): feeding with hypertension drug Captopril at 1 mg/kg • Low-dose group (L group): feeding with the peptide composition disclosed herein at a dose of 50 mg/kg • Medium-dose group (M group): feeding with the peptide composition disclosed herein at a dose of 100 mg/kg • High-dose group (H group): feeding with the peptide composition disclosed herein at a dose of 200 mg/kg
The experiment lasted for a total of 8 weeks.

C[C@H](CS)C(=O)N1CCC[C@H]1C(=O)O [Captopril]
Diastolic blood pressure (Week 0): 80.2 ± 6.5 mmHg | Systolic blood pressure (Week 0): 111.0 ± 7.2 mmHg | Diastolic blood pressure (Week 1): 79.9 ± 6.3 mmHg | Systolic blood pressure (Week 1): 110.2 ± 5.8 mmHg | Diastolic blood pressure (Week 2): 79.0 ± 5.3 mmHg | Systolic blood pressure (Week 2): 108.8 ± 4.2 mmHg | Diastolic blood pressure (Week 3): 78.9 ± 6.4 mmHg | Systolic blood pressure (Week 3): 108.6 ± 4.3 mmHg | Diastolic blood pressure (Week 4): 78.9 ± 3.9 mmHg | Systolic blood pressure (Week 4): 108.4 ± 3.9 mmHg | Diastolic blood pressure (Week 5): 78.8 ± 3.8 mmHg | Systolic blood pressure (Week 5): 108.1 ± 4.1 mmHg | Diastolic blood pressure (Week 6): 78.8 ± 3.2 mmHg | Systolic blood pressure (Week 6): 108.1 ± 2.0 mmHg | Diastolic blood pressure (Week 7): 78.8 ± 5.0 mmHg | Systolic blood pressure (Week 7): 108.0 ± 3.1 mmHg | Diastolic blood pressure (Week 8): 78.8 ± 2.9 mmHg | Systolic blood pressure (Week 8): 108.0 ± 2.5 mmHg
